Experimental data as given in patent US9409952B2, “Peptide-compound cyclization method” (Chugai Seiyaku Kabushiki Kaisha, priority 2011, dated 2016).
Where two headings read alike, the source gives them in different places. Starred links: 1 amine or outer side, 2 acyl side, 3 side chain; linkers in the order of their positions; H or OH if unused. Positions of bridges follow the written chain, without caps; N, C: chain ends. Non-standard residues stand in square brackets, D forms with d. Residues, ends and D or L forms follow the SMILES beside them. ξ: configuration not given here. *: point of attachment. NMeF = CN[C@@H](Cc1ccccc1)C(=O)O; NMeGABA = CN(CCCC(=O)[*:2])[*:1]; NMeI = CC[C@H](C)[C@H](NC)C(=O)O; NMeβAla = CN(CCC(=O)[*:2])[*:1]; NMeL = CN[C@@H](CC(C)C)C(=O)O; ξNMeF = CNC(Cc1ccccc1)C(=O)O; NMeV = CN[C@H](C(=O)O)C(C)C; NMeA = CN[C@@H](C)C(=O)O; Piperidide = C1CCN(*)CC1; dNMeA = CN[C@H](C)C(=O)O; Sar = CNCC(=O)O; tBu = CC(C)(C)*

Tests used:
[1] = PAMPA (parallel artificial membrane permeability assay); assay type: in vitro ADME; details: PAMPA
Method in brief: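 Artificial membrane was 10% (w/v) egg lecithin plus 0.5% (w/v) cholesterol in dodecane on a PVDF filter. A 10 mM DMSO stock was added at 0.5% (v/v) to donor buffer (50 mM MOPSO, pH 6.5, 5.0% glycocholic acid). After 18 h at 37 °C, LC/MS or LC/UV gave donor and acceptor levels for Pe.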

[2] = Metabolic stability in human hepatic microsome; assay type: in vitro ADME; details: microsomes
[3] = membrane permeation rate (Pe), 50 mM MOPSO buffer pH 6.5 with 5.0% glycocholic acid, 37° C., 18 hours, read-out: iPAMPA Pe
[4] = pH 7.4, human hepatic microsome, NADPH(+), read-out: CL NADPH(+)

Structure (SMILES) | Papp at 18 hours, 50 µM ([1]; pH 6.5) [×10⁻⁶ cm/s] | microsomal CLint at 1 uM ([2]; human, pH 7.4, CL NADPH(+)) [µL/min/mg] | Papp at 18 hours, 50 µM [1, 3] [×10⁻⁶ cm/s] | microsomal CLint at 1 uM [2, 4] [µL/min/mg]
CC(C)C[C@@H]1NC(=O)CN(C)C(=O)[C@H](C(C)C)N(C)C(=O)[C@H](C)NC(=O)[C@H]([C@@H](C)O)NC(=O)[C@H](CC(C)C)N(C)C(=O)[C@H](C)N(C)C(=O)[C@H](CC(C)C)N(C)C(=O)[C@H](Cc2ccccc2)NC(=O)CCN(C)C(=O)C[C@@H](C(=O)N2CCCCC2)NC1=O [DP-102] ([NMeβAla]F[NMeL][NMeA][NMeL]TA[NMeV][Sar]LD-Piperidide; lactam N-11) | 1.8 | 5 | – | –
CC[C@H](C)[C@H]1C(=O)N[C@@H]([C@@H](C)O)C(=O)N(C)[C@@H](C)C(=O)N(C)[C@@H](CC(C)C)C(=O)N[C@H](C(=O)N2CCCCC2)CC(=O)N(C)CCC(=O)N(C)[C@@H](CC(C)C)C(=O)N[C@@H](CC(C)C)C(=O)N(C)[C@@H](Cc2ccccc2)C(=O)N[C@@H](COC(C)(C)C)C(=O)N(C)C(Cc2ccccc2)C(=O)N1C (stereo partly drawn) [DP-103] ([NMeβAla][NMeL]L[NMeF]S(tBu)[ξNMeF][NMeI]T[NMeA][NMeL]D-Piperidide; lactam N-11) | 19 | 73 | – | –
CC[C@H](C)[C@H]1C(=O)N(C)[C@@H](Cc2ccccc2)C(=O)N[C@@H](CC(C)C)C(=O)N[C@H](C(=O)N2CCCCC2)CC(=O)N(C)CCC(=O)N(C)[C@@H](CC(C)C)C(=O)N[C@@H]([C@@H](C)O)C(=O)N(C)[C@@H](Cc2ccccc2)C(=O)N(C)[C@@H](CC(C)C)C(=O)N[C@@H](C)C(=O)N(C)[C@@H](CC(C)C)C(=O)N1C [DP-104] ([NMeβAla][NMeL]T[NMeF][NMeL]A[NMeL][NMeI][NMeF]LD-Piperidide; lactam N-11) | 6.7 | 29 | – | –
CC[C@H](C)[C@H]1C(=O)N[C@@H]([C@@H](C)O)C(=O)N(C)CC(=O)N(C)[C@@H](CC(C)C)C(=O)N[C@H](C(=O)N2CCCCC2)CC(=O)N(C)[C@H](C)C(=O)N[C@@H](CC(C)C)C(=O)N(C)[C@@H](CC(C)C)C(=O)N(C)[C@@H](Cc2ccccc2)C(=O)N[C@@H](C)C(=O)N(C)[C@@H](Cc2ccccc2)C(=O)N1C [DP-105] ([dNMeA]L[NMeL][NMeF]A[NMeF][NMeI]T[Sar][NMeL]D-Piperidide; lactam N-11) | 45 | 60 | – | –
CC[C@H](C)[C@H]1C(=O)N(C)[C@@H](CC(C)C)C(=O)N[C@@H]([C@@H](C)O)C(=O)N2CCC[C@H]2C(=O)N[C@@H](Cc2ccccc2)C(=O)N[C@H](C(=O)N2CCCCC2)CC(=O)N(C)CC(=O)N(C)[C@@H](CC(C)C)C(=O)N[C@@H](Cc2ccccc2)C(=O)N[C@@H](CC(C)C)C(=O)NCC(=O)N1C [DP-106] ([Sar][NMeL]FLG[NMeI][NMeL]TPFD-Piperidide; lactam N-11) | 34 | 155 | – | –
CC[C@H](C)[C@@H]1NC(=O)[C@H](C)N(C)C(=O)[C@H](CC(C)C)NC(=O)[C@H]([C@@H](C)O)NC(=O)CNC(=O)[C@@H]2CCCN2C(=O)[C@H](COC(C)(C)C)NC(=O)[C@H](CC(C)C)N(C)C(=O)[C@H](Cc2ccccc2)NC(=O)CCCN(C)C(=O)C[C@@H](C(=O)N2CCCCC2)NC(=O)[C@H](Cc2ccccc2)N(C)C1=O [DP-107] ([NMeGABA]F[NMeL]S(tBu)PGTL[NMeA]I[NMeF]D-Piperidide; lactam N-12) | – | – | 23 | 14
CC[C@H](C)[C@@H]1NC(=O)[C@H](C)N(C)C(=O)[C@H]([C@@H](C)O)NC(=O)[C@H](Cc2ccccc2)N(C)C(=O)CNC(=O)[C@H](CC(C)C)N(C)C(=O)[C@H](C(C)C)NC(=O)[C@H](CC(C)C)N(C)C(=O)[C@H](Cc2ccccc2)NC(=O)[C@H](C)N(C)C(=O)CCCN(C)C(=O)C[C@@H](C(=O)N2CCCCC2)NC1=O [DP-108] ([NMeGABA][NMeA]F[NMeL]V[NMeL]G[NMeF]T[NMeA]ID-Piperidide; lactam N-12) | – | – | 22 | 48
CC[C@H](C)[C@@H]1NC(=O)[C@H](Cc2ccccc2)N(C)C(=O)[C@@H]2CCCN2C(=O)[C@H]([C@@H](C)O)NC(=O)[C@H](CC(C)C)NC(=O)[C@H](C)N(C)C(=O)CCCN(C)C(=O)C[C@@H](C(=O)N2CCCCC2)NC(=O)[C@H](CC(C)C)NC(=O)[C@H](CC(C)C)N(C)C(=O)CNC(=O)[C@H](Cc2ccccc2)N(C)C1=O [DP-109] ([NMeGABA][NMeA]LTP[NMeF]I[NMeF]G[NMeL]LD-Piperidide; lactam N-12) | – | – | 30 | 36
CC[C@H](C)[C@@H]1NC(=O)[C@H](Cc2ccccc2)N(C)C(=O)[C@@H](C)NC(=O)C[C@@H](C(=O)N2CCCCC2)NC(=O)[C@H](C(C)C)N(C)C(=O)[C@H](Cc2ccccc2)N(C)C(=O)[C@H](COC(C)(C)C)NC(=O)[C@H](CC(C)C)N(C)C(=O)CN(C)C(=O)[C@H]([C@@H](C)O)NC(=O)[C@H](CC(C)C)N(C)C1=O [DP-110] ([dA][NMeF]I[NMeL]T[Sar][NMeL]S(tBu)[NMeF][NMeV]D-Piperidide; lactam N-11) | – | – | 30 | 36
CC(C)C[C@@H]1NC(=O)[C@H](CC(C)C)NC(=O)[C@H](C)N(C)C(=O)C[C@@H](C(=O)N2CCCCC2)NC(=O)[C@H](C(C)C)N(C)C(=O)[C@H](CC(C)C)NC(=O)[C@H](Cc2ccccc2)NC(=O)[C@H]([C@@H](C)O)NC(=O)CN(C)C(=O)[C@H](CC(C)C)NC(=O)[C@H](C)NC1=O [DP-111] ([NMeA]LLAL[Sar]TFL[NMeV]D-Piperidide; lactam N-11) | 12 | 17 | – | –
CC[C@H](C)[C@@H]1NC(=O)[C@H](CC(C)C)N(C)C(=O)[C@H](C(C)C)N(C)C(=O)[C@H](C)NC(=O)[C@H](C)N(C)C(=O)[C@H](Cc2ccccc2)NC(=O)[C@H]([C@@H](C)O)NC(=O)[C@H](CC(C)C)N(C)C(=O)[C@H](CC(C)C)N(C)C(=O)[C@H](C)N(C)C(=O)C[C@@H](C(=O)N2CCCCC2)NC1=O [DP-112] ([NMeA][NMeL][NMeL]TF[NMeA]A[NMeV][NMeL]ID-Piperidide; lactam N-11) | 35 | 49 | – | –
CC[C@H](C)[C@@H]1NC(=O)[C@@H]2CCCN2C(=O)[C@H]([C@@H](C)O)NC(=O)[C@H](Cc2ccccc2)NC(=O)CNC(=O)[C@H](Cc2ccccc2)N(C)C(=O)[C@H](CC(C)C)NC(=O)[C@H](CC(C)C)N(C)C(=O)[C@H](CC(C)C)N(C)C(=O)CCCN(C)C(=O)C[C@@H](C(=O)N2CCCCC2)NC1=O [DP-113] ([NMeGABA][NMeL][NMeL]L[NMeF]GFTPID-Piperidide; lactam N-11) | 28 | 84 | – | –
CC[C@H](C)[C@@H]1NC(=O)[C@H](CC(C)C)N(C)C(=O)CCCN(C)C(=O)C[C@@H](C(=O)N2CCCCC2)NC(=O)[C@H](CC(C)C)N(C)C(=O)[C@H](C)N(C)C(=O)[C@H]([C@@H](C)O)NC(=O)[C@H](CC(C)C)N(C)C(=O)[C@H](COC(C)(C)C)NC(=O)[C@H](Cc2ccccc2)N(C)C(=O)[C@H](Cc2ccccc2)N(C)C1=O [DP-114] ([NMeGABA][NMeL]I[NMeF][NMeF]S(tBu)[NMeL]T[NMeA][NMeL]D-Piperidide; lactam N-11) | 44 | 56 | – | –
CC[C@H](C)[C@@H]1NC(=O)[C@H](Cc2ccccc2)N(C)C(=O)[C@H](CC(C)C)NC(=O)[C@H](CC(C)C)NC(=O)[C@H](Cc2ccccc2)NC(=O)[C@H](CC(C)C)NC(=O)[C@@H](C)NC(=O)C[C@@H](C(=O)N2CCCCC2)NC(=O)[C@H](Cc2ccccc2)NC(=O)[C@H]([C@@H](C)O)NC1=O [DP-115] ([dA]LFLL[NMeF]ITFD-Piperidide; lactam N-10) | – | – | 0.45 | 28
CC(C)C[C@@H]1NC(=O)[C@H]([C@@H](C)O)NC(=O)[C@H](CC(C)C)NC(=O)[C@H](CC(C)C)N(C)C(=O)[C@H](Cc2ccccc2)NC(=O)[C@H](Cc2ccccc2)NC(=O)[C@H](C)N(C)C(=O)C[C@@H](C(=O)N2CCCCC2)NC(=O)[C@H](Cc2ccccc2)N(C)C(=O)CNC1=O [DP-116] ([NMeA]FF[NMeL]LTLG[NMeF]D-Piperidide; lactam N-10) | – | – | 23 | 333
CC(C)C[C@@H]1NC(=O)CCN(C)C(=O)C[C@@H](C(=O)N2CCCCC2)NC(=O)[C@H](Cc2ccccc2)N(C)C(=O)CNC(=O)[C@H]([C@@H](C)O)NC(=O)[C@H](Cc2ccccc2)NC(=O)[C@H](CC(C)C)N(C)C(=O)[C@H](CC(C)C)NC(=O)[C@H](Cc2ccccc2)NC1=O [DP-117] ([NMeβAla]LFL[NMeL]FTG[NMeF]D-Piperidide; lactam N-10) | – | – | 25 | 194
CC[C@H](C)[C@@H]1NC(=O)[C@H](CC(C)C)N(C)C(=O)CCN(C)C(=O)C[C@@H](C(=O)N2CCCCC2)NC(=O)[C@H](Cc2ccccc2)N(C)C(=O)[C@H](CC(C)C)NC(=O)CN(C)C(=O)[C@H]([C@@H](C)O)NC(=O)[C@H](C)N(C)C(=O)[C@H](C(C)C)N(C)C1=O [DP-118] ([NMeβAla][NMeL]I[NMeV][NMeA]T[Sar]L[NMeF]D-Piperidide; lactam N-10) | 14 | 79 | – | –
CC[C@H](C)[C@@H]1NC(=O)[C@H](Cc2ccccc2)NC(=O)[C@@H](C)N(C)C(=O)C[C@@H](C(=O)N2CCCCC2)NC(=O)[C@H](CC(C)C)NC(=O)[C@H](Cc2ccccc2)N(C)C(=O)[C@H](Cc2ccccc2)NC(=O)[C@H](CC(C)C)NC(=O)[C@H]([C@@H](C)O)NC(=O)[C@H](CC(C)C)NC1=O [DP-119] ([dNMeA]FILTLF[NMeF]LD-Piperidide; lactam N-10) | – | – | 16 | 67
